According to US5663207A, “Gem-dichlorocyclopropanes as antitumor agents” (priority 1995, dated 1997):
“Also recorded” adds a separate entry of the source. Read-outs that look alike come from different tables or passages of the source.

Columns and labels:
[1] = Stability observed during isolation and storage; type: physicochemical; conditions: on concentration, drying or storage
Experimental: The structures of all compounds were supported by their proton NMR spectra, which were measured on either a Varian EM-360A or XL-300 spectrometer. The spectra are reported in parts per million in CDCl3 unless otherwise noted, with tetramethysilane as the internal standard. Infrared spectra were obtained from KBr pellets on a Beckman Acculab 1 spectrometer and were consistent with the assigned structures. Silica gel (for example, obtained commercially from J. T. Baker) of approximately 40 μm diameter was used for flash chromatography (STILL, W. C., KAHN, M. AND MITRA, A. (1978), "Rapid chromatographic technique for preparative separations with moderate resolutions", Journal of Organic Chemistry, 43, 2923), which was performed at 5-10 psi. Petroleum ether was of bp 30°-60° C. When necessary, solvents or reagents were dried by appropriate methods. Evaporations were carried out in vacuo on a rotary evaporator or under a stream of dry N2. Melting points were taken on a Thomas-Hoover capillary melting point apparatus and are uncorrected. Reaction progress and product purity were monitored by analytical TLC on strips of Eastman Kodak plastic-backed SiO2 60 F254 or Al2 O3 F254. Developed strips were viewed under light of 254 and 365 nm wavelengths. Elemental analyses were done by Midwest Microlab Ltd., Indianapolis, IN. Acceptable elemental results are denoted in Table I by the formula, followed by the elements analyzed. Melting points and yields of all compounds were based on pure samples unless otherwise noted, are listed in Table I. Para-Bromoanisole, p-methoxydeoxybenzoin, anisole, p-methoxybenzaldehyde, and 2,3-bis-(p-methoxyphenyl)-acrylic acid and trans-p-methoxystilbene (the olefin), were purchased from Aldrich & Co. The cyclopropanes 1,1-dichloro-cis-2-(p-hydroxyphenyl)-3-phenylcyclopropane (9), and its trans isomer 1,1-dichloro-trans-2-(p-Hydroxyphenyl)-3phenylcyclopropane (17) were prepared from Compounds 8 & 16, respectively. […] Tamoxifen was obtained from Stuart Pharmaceuticals, Division of ICI Americas, Inc., Wilmington, Del. 19897. MER 25 was obtained from the Merrell Dow Research Institute, Division of Merrell Dow Pharmaceuticals, Inc., Cincinnati, Ohio. Protein Assay Reagent, Pierce Chemical Co., Rockford, Ill. 61105. Diethylstilbestrol, β-estradiol, EDTA, DL-dithiothreitol, Sodium molybdate, and Tris (hydroxymethyl) aminomethane hydrochloride were purchased from Sigma Chemical Co., St. Louis, Mo. 63178.
Essentially, the intermediate olefin acids (Compounds 6 & 12) were obtained from a mixed Perkin and Knoevenagel-type condensation involving the reaction of p-methoxyaldehyde (Compound 4) with phenylacetic acid (Compound 5), or p-methoxyphenylacetic acid (Compound 11) in triethylamine and acetic anhydride. To prepare cis-p-methoxystilbene (Compound 7) or bis-(p-methoxy)-cis-stilbene (Compound 13). Decarboxylation of 6 & 12 with quinoline (prevents isomerizations; KLEIN, J. AND MEYER, A. Y. (1964), "The decarboxylation of α-cyano-and α-carboxycinnamic acids", Journal of Organic Chemistry, 29, 1038), and copper chromite at elevated temperature provided 7 & 13. High temperature during distillation caused 8% isomerization to the trans-isomer (15), which was isolated by column chromatography. Dichlorocarbene generation used the catalytic phase transfer method (21, 37) (used extensively in our laboratory) of 50% aqueous solution of NaOH, CHCl3 and benzyltriethylammonium chloride (TEBA) as the anion transfer agent. […]

[2] = system: MCF-7 human breast cancer cells; assay: In vitro MCF-7 human breast cancer cell growth inhibition assay; type: cell-based; conditions: for inhibition at 1 µM: Homo sapiens
Description: The biological evaluation of the test compounds consisted of the in vitro rat cytosolic estradiol receptor binding assay, the in vivo immature mouse uterotrophic (estrogenic) and antiuterotrophic (antiestrogenic) assays, and the in vitro suppression of the proliferation of the ER positive MCF-7 human breast cancer cell line. Estradiol (pure agonist), TAM (agonist in mice and antagonist in MCF-7), MER 25 (pure antagonist) and Analog II (antagonist in mice) were used in the assay as standards.
MCF-7 (estrogen-receptor positive) human breast cancer cells (obtained from the Michigan Cancer Foundation, Detroit, Mich.) were grown at 37° C. in 75 cm^2 tissue culture (T-75) flasks, as monolayer cultures in RPMI 1640 phenol red-free media supplemented with 2 mM L-glutamine, gentamicin (50 μg/mL), penicillin (100 units/mL), streptomycin (100 μg/mL ) and calf serum (5%). Cultures were grown in an incubator 37° C. in a humid 5% CO2 atmosphere, and fed on alternate days. Expotential growth was maintained by subculturing at eight day intervals when the cells per T-75 flask reached 10 to 12×10^6 cells. Cells were trypsinized, washed and plated in multiwell plates at a density of 5×10^4 cells/well in 3 mL of RPMI 1640 media. The cells were allowed to attach and were in logarithmic growth when the test compounds were added. The test compounds (10^-6 M) in the presence or absence of a 10-fold lower dose of estradiol were dissolved in a polyethylene glycol 400: ethanol (55:45) mixture and added in the culture media in duplicate. Control samples received vehicle alone at the same concentration used in the treatment groups. The final concentration of the vehicle mixture was 0.1% of the incubation media. Cell growth was measured on alternate days using the hemocytometric trypan blue exclusion method. Percent inhibition of MCF-7 cells was calculated as the ratio of the control mean cell count per well minus the treatment group mean cell count per well to the control mean cell count per well, multiplied by 100.
^b % MCF7 inhibition was calculated as follows: […]
Thirteen compounds, Analog II, TAM, and MER 25 were tested for their antiproliferative activity in the MCF-7 human breast cancer cell line (Table II). Compounds were tested at a concentration of 10^-6 M in the presence or absence of 10^-7 M estradiol to assess their ability to alter the growth of the calls (Table II). The 10^-6 M concentration was selected since it was reported that the inhibition of the MCF-7 cells by antiestrogens and TAM occurred either at that concentration or less, and were both selective and estrogen receptor specific. Concentrations of antiestrogens greater than 5×10^-6 M were reported to have nonspecific cytotoxic effects (BRIAND, P. AND […], A. E. (1984), "Effect of estrogen and antiestrogen on the human breast cancer cell line MCF-7 adapted to growth at low serum concentration", Cancer Research, 44, 1114).

## CC(=O)Oc1ccc([C@H]2[C@@H](c3ccccc3)C2(Cl)Cl)cc1 (relative stereo) [Compound 10, 1,1-Dichloro-cis-2-(p-acetoxyphenyl)-3-phenylcyclopropane]
[1]
  stability (in words): stable light-yellow oil at 0 °C
[2]; 10^-6 M
  effect on MCF-7 cell growth (in words): inhibited cell growth
[2]; MCF7, 10^-6 M, versus control mean cell count, read-out: MCF-7 Inhibition
  inhibition at 1 µM: 32%

## Oc1ccc(C2(c3ccc(O)cc3)C(Cl)(Cl)C23CCCCC3)cc1 [Compound 30, 1,1-Dichloro-2,2-bis-(p-hydroxyphenyl)-spiro[2.5]octane]
[1]
  stability (in words): gradually turned to light-orange; also recorded: underwent a gradual color change
[2]; 10^-6 M
  effect on MCF-7 cell growth (in words): active inhibitors of cell growth
[2]; 10^-7 M estradiol
  reversal of growth inhibition by estradiol (in words): reversed by 10^-7 M estradiol
[2]; MCF7, read-out: MCF-7 Inhibition
  inhibition at 1 µM: 21.3%
[2]; with 10^-7 M estradiol
  effect on estradiol-induced cell growth (in words): enhanced estradiol-induced cell growth above the control
